Measured values published in US20070237818A1, “Controlled-release formulation of HCV protease inhibitor and methods using the same” (priority 2005, published 2007).

Experiments:
melanoma A375 tumors = melanoma A375 tumors implanted into the left ventricle of the heart; cited from earlier work
hepatitis-C virus = test: mean viral load over time in HCV infected patients (FIG. 1); assay type: in vivo; conditions: various doses and regimens
Text: Thus, in one aspect of the invention, the one or more discrete dosages are adjusted in amount to provide a highest dose or doses at a time or times corresponding to the time interval when replication of the hepatitis-C virus is highest.

[1] = solubility in water / aqueous systems; assay type: physicochemical

SMILES	distant bone metastasis to the femur and tibia (melanoma A375 tumors)	viral load over time (hepatitis-C virus)	solubility [1] [µg/mL]
CN(C)C(=O)[C@H](Cc1ccccc1)NC(=O)[C@H]1O[C@@H]1C(=O)NCCc1ccccn1 [CLIK-148]	reduced		
CC(C)(C)NC(=O)N[C@H](C(=O)N1C[C@H]2[C@@H]([C@H]1C(=O)NC(CC1CCC1)C(=O)C(N)=O)C2(C)C)C(C)(C)C (stereo partly drawn) [Formula Ia, (1R,5S)—N-[3-Amino-1-(Cyclobutylmethyl)-2,3-Dioxopropyl]-3-[2(S)-[[[(1,1-Dimethylethyl)Amino]Carbonyl]Amino]-3,3-Dimethyl-1-Oxobutyl]-6,6-Dimethyl-3-Azabicyclo[3.1.0]Hexan-2(S)-Carboxamide]		decline in viral load is cyclical	~600
